What was measured:
Assay type in all cases: cell-based, human
[1] = system: ULBP3; assay: Surface expression of NK cell activating ligands by flow cytometry; details: RPMI-8226, 48 hours, DMSO = 100
Method: (§1) For surface staining, cells were incubated with the appropriate antibodies and 7AAD (Immunostep) for 15 min in the dark. Data were acquired using a FACSCalibur cytometer (BD Biosciences) and analyzed using Infinicyt™ software (Cytognos). Specifically, the expression of CD38 or ligands for NK cell activating receptors (MICA, MICB, ULBP1-3, PVR and CD112) in MM cell lines was determined on the viable cell population (7AAD-). In primary myeloma cells, the expression of CD38 was analyzed over the viable myeloma population using the panel CD138-FITC/CD56-PE/7AAD/CD38-APC, whereas MICA/B-AF488/CD56-PE/7AAD/CD38-APC panel was used to determine MICA/B expression. Normalized median fluorescence intensity (MFI) was calculated by dividing median fluorescence obtained with the specific antibody by median fluorescence of the corresponding isotype control. MFI for each treatment was expressed as a percentage relative to the control (100%, cells cultured in media with DMSO).
(§2) MM cells (JJN3, MM1.S, RPMI-8226, MOLP-8) were treated with EDO-S101 (1 and 2.5 μm) for 48 hours in accordance with the methods outlined above. After incubation, expression of several ligands for NK cell activating receptors: MICA, MICB, ULBP1, ULPB2, ULPB3, CD155 (PVR) and CD112 (Nectin-2) were measured using flow cytometry. Flow cytometry was then performed in accordance with the methods outlined above to calculate.

[2] = system: MICB; assay: as above; details: 48 hours, DMSO = 100
Method: as §1, §2

[3] = system: CD155; assay: as above; details: 48 hours, DMSO = 100
Method: as §1, §2

[4] = system: ULBP2; assay: as above; details: 48 hours, DMSO = 100
Method: as §1, §2

[5] = system: CD112; assay: as above; details: RPMI-8226, 48 hours, DMSO = 100
Method: as §1, §2

[6] = system: MICA mRNA; assay: MICA mRNA by RT-qPCR in MM cell lines; details: four MM cell lines tested; 1 and 2.5 μM, 36 hours (MOLP-8 6 hours)
Method: Real time quantitative PCR (RT-qPCR) Total RNA was isolated using the RNeasy Mini Kit (Qiagen, Hilden, Germany). Following reverse transcription, PCR was performed using TaqMan Gene Expression Assays (Applied Biosystems, Foster City, CA, USA): CD38 (Hs01120071_m1), MICA (Hs00741286_m1), MICB (Hs00792952_m1) and GAPDH (Hs99999905_m1). The results were expressed as fold change relative to expression of the target gene in control cells, using endogenous expression of GAPDH for normalization.

[7] = system: MICB; assay: MICB expression on MM patients' plasma cells ex vivo; details: 3 out of 6 patients analyzed, 48 hours
Method: as §1

[8] = system: CD38; assay: CD38 surface expression in MM cell lines by flow cytometry
Method: Cell Treatment with EDO-S101 MM cells (MM1S, JJN3, KMS12-BM, RPMI-8226, U266, MOLP-8) were either treated with a control (0 μM EDO-S101, DMSO vehicle) or treated with EDO-S101 (0.1, 0.5, 1 or 2.5 μM in DMSO) for 48 hours, unless indicated otherwise.
as §1, with “DMSO). […]” for “DMSO).”

[9] = system: MM cell lines (MM.1S, RPMI-8226, MOLP-8); assay: NK-cell direct cytotoxicity on pre-treated MM cells; details: pre-treatment 2.5 μM 48 hours, NK cells ratio 1:1, 4 hours, vs DMSO-pretreated
Method: ADCC, CDC and apoptosis via cross-linking To assess the effect of tinostamustine pre-treatment on cytotoxic mechanisms mediated by daratumumab, MM cell lines were first incubated in presence of tinostamustine (2.5 μM) or DMSO for 48 hours. Cells were then washed to remove tinostamustine or DMSO from the culture medium, and the corresponding cytotoxic assay (ADCC, CDC or apoptosis via cross-linking) was performed.
For the evaluation of ADCC, tinostamustine or DMSO pre-treated cells were cocultured with NK cells obtained from healthy donors in the presence of daratumumab (1 μg/ml) or the corresponding isotype control for 4 hours (ratio 1:1). Briefly, peripheral blood mononuclear cells (PBMCs) were isolated from healthy donor buffy coats by Lymphoprep density gradient centrifugation. […] In all three assays, the cytotoxic effect on MM cells was evaluated by flow cytometry with Annexin V/7AAD staining after treatment with daratumumab. […]
MM cells (MM1.S, RPMI-8226, MOLP-8 cells pre-treated with 0 or 2.5 μM EDO-S101 in accordance with the methods outlined above) were co-cultured with NK-cells (ratio 1:1), in the presence of daratumumab (1 μg/mL) or the corresponding isotype control, for 4 hours at 37° C. […] ADCC was then evaluated using flow cytometry in accordance with the methods outlined above, using the following panel: CD38me-FITC/AnnexinV-PE/7AAD/CD45-APC.

Cn1c(CCCCCCC(=O)NO)nc2cc(N(CCCl)CCCl)ccc21 [EDO-S101, 7-(5-(bis(2-chloroethyl)amino)-1-methyl-1H-benzo[d]imidazol-2-yl)-N-hydroxyheptanamide]
Normalized MFI ULBP3 ([1]; EDO-S101 1 μM): 111.7 ± 14.8% | Normalized MFI ULBP3 ([1]; EDO-S101 2.5 μM): 129.6 ± 20.2% | Normalized MFI MICB ([2]; JJN3, EDO-S101 1 μM): 137.6 ± 14% | Normalized MFI MICB ([2]; JJN3, EDO-S101 2.5 μM): 144.9 ± 28% | Normalized MFI MICB ([2]; MM1.S, EDO-S101 1 μM): 113.8 ± 7.6% | Normalized MFI MICB ([2]; MM1.S, EDO-S101 2.5 μM): 113.4 ± 3.3% | Normalized MFI MICB ([2]; MOLP-8, EDO-S101 1 μM): 107.8 ± 0.5% | Normalized MFI MICB ([2]; MOLP-8, EDO-S101 2.5 μM): 119.3 ± 7.7% | Normalized MFI MICB ([2]; RPMI-8226, EDO-S101 1 μM): 107.1 ± 6.6% | Normalized MFI MICB ([2]; RPMI-8226, EDO-S101 2.5 μM): 131.3 ± 9.4% | Normalized MFI CD155 ([3]; JJN3, EDO-S101 1 μM): 161.4 ± 14.3% | Normalized MFI CD155 ([3]; JJN3, EDO-S101 2.5 μM): 156.8 ± 24.7% | Normalized MFI CD155 ([3]; MM1.S, EDO-S101 1 μM): 113.3 ± 3.9% | Normalized MFI CD155 ([3]; MM1.S, EDO-S101 2.5 μM): 111.5 ± 15.3% | Normalized MFI CD155 ([3]; RPMI-8226, EDO-S101 1 μM): 123.9 ± 6.1% | Normalized MFI CD155 ([3]; RPMI-8226, EDO-S101 2.5 μM): 168.2 ± 24.8% | Normalized MFI ULBP2 ([4]; JJN3, EDO-S101 1 μM): 110.5 ± 9.5% | Normalized MFI ULBP2 ([4]; JJN3, EDO-S101 2.5 μM): 112.9 ± 13.4% | Normalized MFI ULBP2 ([4]; MM1.S, EDO-S101 1 μM): 95.8 ± 4.5% | Normalized MFI ULBP2 ([4]; MM1.S, EDO-S101 2.5 μM): 96.3 ± 12.3% | Normalized MFI ULBP2 ([4]; MOLP-8, EDO-S101 1 μM): 116.1 ± 4.6% | Normalized MFI ULBP2 ([4]; MOLP-8, EDO-S101 2.5 μM): 124.7 ± 13.5% | Normalized MFI CD112 ([5]; EDO-S101 1 μM): 116.6 ± 13.2% | Normalized MFI CD112 ([5]; EDO-S101 2.5 μM): 142.8 ± 11.5% | expression of MICA at the mRNA level [6]: increased | increase of MICB expression after treatment, patient cells [7]: more than 1.5 fold | percentage of CD38+ cell population ([8]; JJN3 cell line, 1 and 2.5 μM): significantly increased | CD38 surface expression (normalized MFI) ([8]; MM1.S, JJN3, KMS12-BM, RPMI-8226, U226, MOLP-8, 0.1, 0.5, 1 and 2.5 μM, 48 hours, relative to DMSO control, only exception NCI-H929): significantly increased | percentage of dead myeloma cells, NK-cell direct cytotoxicity (no daratumumab) [9]: significantly enhances | percentage of dead myeloma cells, NK-cell direct cytotoxicity (no daratumumab) ([9]; listed as tinostamustine): significantly increased

From US20240252472A1, “COMBINATIONS FOR TREATING CANCER” (Purdue Pharma L.P., priority 2023, published 2024)
